{"source": "patent US20150104415A1", "about": "“Treatments of Hepatitis C virus infection” (DEBIOPHARM INTERNATIONAL SA, priority 2011, published 2015)", "tested_on": "HCV GT1", "assay": "Randomized, double-blind, placebo-controlled phase II study of DEB025 plus SOC (peg-IFNα2a plus RBV); virologic response by HCV RNA", "format": "in vivo, patients", "procedure": "This is an international, multicentre, randomized, double-blind, placebo-controlled, 4-arm, parallel-group phase II study comparing therapy with three doses of DEB025 (600 mg QD, 800 mg QD and 400 mg BID) plus SOC (peg-IFNα2a once weekly plus RBV BID) versus triple therapy with placebo matching DEB025 plus SOC in chronic HCV GT1 patients who were non-responders to prior SOC treatment, or who have relapsed after SOC treatment.\nApproximately 344 patients will be randomized into one of 4 treatment arms (A, B, C (C1/C2) and D) in a 1:1:1:1 ratio. C1 and C2 patients will be randomized in a 1:1 ratio within arm C.\nThe randomization will be stratified by response status to previous treatment (non-responders/relapsers), BMI (<25 kg/m2 or ≧25 kg/m2) and IL28B polymorphism (CC or CT/TT) at screening.\nThe ratio non-responders and relapsers should be kept at 50% (172 patients) of the study population. An international, multicentre, randomized, double-blind, placebo-controlled, 4-arm, parallel-group phase II study comparing triple therapy with three doses of alisporivir (400 mg, 600 mg or 800 mg)+standard of care (SOC) versus triple therapy with placebo matching alisporivir plus SOC in […] chronic HCV GT1 patients who were non-responders to prior SOC treatment, or relapsers after SOC treatment is provided.\nPatients are randomized into one of 4 treatment arms as described below in a 1:1:1:1 ratio. The randomization will be stratified by response status to previous treatment (non-responders/relapsers), BMI (<25 kg/m2 or ≧25 kg/m2) and IL28B polymorphism (CC or CT/TT) at screening. The ratio non-responders and relapsers should be kept at 50% (172 patients) of the study population.\n• Alisporivir/Placebo 3 capsules of 200 mg (600 mg) alisporivir 2×/day (BID) orally for 1 week (loading dose) followed by 3 capsules of 200 mg (600 mg) alisporivir once per day (QD) plus 1 capsule of placebo QD for 47 weeks. Only in week 17 (dummy loading) patients receive 3 capsules of 200 mg (600 mg) alisporivir in the morning and 3 capsules of placebo in the evening. • Peg-IFNα2a 180 μg subcutaneously (s.c.) once weekly for 48 weeks • Ribavirin 1000 mg/day (<75 kg) or 1200 mg/day (≧75 kg) orally in two divided doses for 48 weeks\n• alisporivir/Placebo 3 capsules of 200 mg (600 mg) alisporivir 2×/day orally for 1 week (loading dose) followed by 4 capsules alisporivir (800 mg) QD for 47 weeks. Only in week 17 (dummy loading) patients receive 3 capsules of 200 mg (600 mg) alisporivir in the morning and 1 capsule of 200 mg alisporivir plus 2 capsules of placebo in the evening. • Peg-IFNα2a 180 μg subcutaneously (s.c.) once weekly for 48 weeks • Ribavirin 1000 mg/day (<75 kg) or 1200 mg/day (≧75 kg) orally in two divided doses for 48 weeks Treatment C1 (will change to active treatment if cEVR not reached=arm C1A) • Placebo 3 capsules of placebo BID orally for 1 week (loading dose) followed by 4 capsules placebo QD for 47 weeks. […]\n• Placebo alisporivir 1 capsule of placebo QD (in the morning) orally for 48 weeks 2 capsules of 200 mg (400 mg) alisporivir 2×/day orally for 48 weeks\n• 180 μg s.c. once weekly for 48 weeks • Ribavirin 1000 mg/day (<75 kg) or 1200 mg/day (≧75 kg) orally in two divided doses for 48 weeks Treatment C2 (will change to active treatment if cEVR not reached=arm C2A) • DEB025 placebo 3 capsules of placebo orally in the morning and 2 capsules of placebo in the evening for 48 weeks. • Peg-IFNα2a 180 μg s.c. once weekly for 48 weeks • Ribavirin 1000 mg/day (<75 kg) or 1200 mg/day (≧75 kg) orally in two divided doses for 48 weeks\n• Placebo 3 capsules of placebo orally as morning dose and 2 capsules of placebo as evening dose for 16 weeks. […]", "key": {"[1]": {"conditions": "Arm A, DEB 600 QD plus peg-IFNα2a/RBV, N = 81"}, "[2]": {"conditions": "Arm B, DEB 800 QD plus peg-IFNα2a/RBV, N = 84"}, "[3]": {"conditions": "Arm D, DEB 400 BID plus peg-IFNα2a/RBV, N = 78"}, "[4]": {"conditions": "DEB 400 BID arm plus SOC, Week 12"}}, "data": [{"smiles": "C/C=C/C[C@@H](C)[C@@H](O)[C@H]1C(=O)N[C@@H](CC)C(=O)N(C)[C@H](C)C(=O)N(CC)[C@@H](C(C)C)C(=O)N[C@@H](C(C)C)C(=O)N(C)[C@@H](CC(C)C)C(=O)N[C@@H](C)C(=O)N[C@H](C)C(=O)N(C)[C@@H](CC(C)C)C(=O)N(C)[C@@H](CC(C)C)C(=O)N(C)[C@@H](C(C)C)C(=O)N1C", "note": "[DEB025, alisporivir]", "values": [{"measurement": "RVR (rapid virologic response): patients with HCV RNA < LOQ (25 IU/mL) after 4 weeks of treatment", "setting": "Arm A, DEB 600 QD (600 mg BID 1 week loading) plus peg-IFNα2a/RBV, N = 81, GT1 relapsers/non-responders", "value": "19 (23.5) n (%)"}, {"measurement": "EVR: HCV RNA decrease >= 2 log10 from baseline or < LOQ (25 IU/mL) after 12 weeks", "setting": "[1]", "value": "64 (79.0) n (%)"}, {"measurement": "cEVR (complete early virologic response, primary endpoint): HCV RNA < LOQ (25 IU/mL) after 12 weeks", "setting": "[1]", "value": "36 (44.4) n (%)"}, {"measurement": "pEVR (partial early virologic response): HCV RNA decrease >= 2 log10 from baseline and > LOQ (25 IU/mL) after 12 weeks", "setting": "[1]", "value": "28 (34.6) n (%)"}, {"measurement": "RVR (rapid virologic response): patients with HCV RNA < LOQ (25 IU/mL) after 4 weeks of treatment", "setting": "Arm B, DEB 800 QD (600 mg BID 1 week loading) plus peg-IFNα2a/RBV, N = 84", "value": "18 (21.4) n (%)"}, {"measurement": "EVR: HCV RNA decrease >= 2 log10 from baseline or < LOQ (25 IU/mL) after 12 weeks", "setting": "[2]", "value": "72 (85.7) n (%)"}, {"measurement": "cEVR (complete early virologic response, primary endpoint): HCV RNA < LOQ (25 IU/mL) after 12 weeks", "setting": "[2]", "value": "48 (57.1) n (%)"}, {"measurement": "pEVR (partial early virologic response): HCV RNA decrease >= 2 log10 from baseline and > LOQ (25 IU/mL) after 12 weeks", "setting": "[2]", "value": "24 (28.6) n (%)"}, {"measurement": "EVR: HCV RNA decrease >= 2 log10 from baseline or < LOQ (25 IU/mL) after 12 weeks", "setting": "[3]", "value": "63 (80.8) n (%)"}, {"measurement": "RVR (rapid virologic response): patients with HCV RNA < LOQ (25 IU/mL) after 4 weeks of treatment", "setting": "[3]", "value": "29 (37.2) n (%)"}, {"measurement": "cEVR (complete early virologic response, primary endpoint): HCV RNA < LOQ (25 IU/mL) after 12 weeks", "setting": "[3]", "value": "55 (70.5) n (%)"}, {"measurement": "pEVR (partial early virologic response): HCV RNA decrease >= 2 log10 from baseline and > LOQ (25 IU/mL) after 12 weeks", "setting": "[3]", "value": "8 (10.3) n (%)"}, {"measurement": "proportion achieving RVR", "setting": "DEB 400 BID arm plus SOC, Week 4", "value": 37.2, "unit": "%"}, {"measurement": "proportion achieving EVR", "setting": "[4]", "value": 80.8, "unit": "%"}, {"measurement": "proportion achieving cEVR", "setting": "[4]", "value": 70.5, "unit": "%"}, {"measurement": "patients achieved RVR", "setting": "Week 4, all the DEB025 treatment arms (600 QD, 800 QD, 400 BID) plus SOC", "value": "> 20", "unit": "%"}, {"measurement": "patients achieved EVR", "setting": "Week 12, all the DEB025 treatment arms (600 QD, 800 QD, 400 BID) plus SOC", "value": "≥ 79", "unit": "%"}]}]}
